Measurements taken from US20210379085A1, “HALOGENATED SALICYLANILIDES FOR TREATING THE SYMPTOMS OF DERMATITIS” (Union Therapeutics A/S, priority 2018, published 2021).

Key:
Assay type in all cases: in vivo, human
[1] = test system: skin barrier and inflammation biomarkers in lesional skin biopsies; experiment: qRT-PCR (TLDA) biomarker gene expression in lesional skin biopsies (Example 3); settings: fold change, topical niclosamide 2% once daily 3 weeks, AD lesional skin
Procedure: (§1) Patients received topical applications of a niclosamide 2% composition and vehicle once daily for 3 weeks, followed by a 1-week follow up period. Topical niclosamide 2% and vehicle was applied on two separate target lesions of atopic dermatitis (lesions of at least 3×3-cm that are at least 2 cm apart, excluding the face, scalp, genitals, hands, and feet). The application areas (5×5-cm) were randomized (1:1) to once daily application of niclosamide 2% or vehicle at 5 mg/cm^2 without occlusion 6 days per week. Patients came to the study site for all study product application for a total of 3 weeks.
(§2) Skin barrier and inflammation biomarker levels were determined from lesional skin biopsies from application areas.
(§3) The skin biopsy samples were analysed by immunohistochemistry (IHC), and by gene expression studies by RT-PCR using TaqMan Low Density Array (TLDA), and by microarray using Affymetrix U133A Plus 2. The immunohistochemistry (IHC) was used to analyse cell biomarkers. The methodologies as disclosed by Guttman-Yassky et al, “Major differences in inflammatory dendritic cells and their products distinguish atopic dermatitis from psoriasis”, The Journal of Allergy and Clinical Immunology, vol. 119, issue 5, pages 1210-1217, 2007, were followed except for that U133A Plus 2-set Gene Chip probe arrays was used instead of U95A-set Gene Chip probe arrays.
Expression values (threshold cycle [Ct]) were normalized to Rplp0 by negatively transforming the Ct values to −dCt (IL17A was normalized to hARP, as analysed by qPCR). The undetected −dCt values were estimated for each gene as the 20% of the minimum across all samples. qRT-PCR expression data were modelled using a mixed effect model with Visit and Treatment Area as a fixed effect and a random intercept for each patient. This formulation intrinsically models the within patient correlation structure as in the case of a paired t-test. This approach introduces less bias than restricting the analysis for those patients who completed the study. Contrasts were used to estimate the fold changes with treatment within each treatment group and conduct hypothesis testing.

[2] = test system: immune cell infiltrates (CD3, langerin, CD11c, FceR1) in lesional skin; experiment: Immunohistochemistry (IHC) of cell biomarkers in lesional skin biopsies (Example 3); settings: topical 2% niclosamide
Procedure: as §1, §2, §3

[3] = test system: lesional skin of patients with moderate atopic dermatitis; experiment: Skin thickness in lesional skin biopsies, Phase II atopic dermatitis study (Example 3); settings: Day 22, compared to baseline and compared to vehicle; topical niclosamide 2% once daily 3 weeks
Procedure: as §1
Three skin biopsies were collected in all patients (one from lesional skin at baseline, pre-dosing at Day 1, and two from lesional skin at Day 22 (one where topical niclosamide 2% had been applied and one where the vehicle had been applied). The lesional skin biopsies were analysed for skin thickness and inflammation biomarkers.

[4] = Day 22, vs vehicle-treated lesion
[5] = Day 22 vs baseline, listed as niclosamide
[6] = Day 22 compared to baseline (pre-dosing at Day 1)

## O=C(Nc1ccc([N+](=O)[O-])cc1Cl)c1cc(Cl)ccc1O [Niclosamide, niclosamide]
[1]; [4]
  CAMP expression, Niclosamide vs. Vehicle (qRT-PCR): −1.33
  CCL5 expression, Niclosamide vs. Vehicle (qRT-PCR): −1.03
  CCL17 expression, Niclosamide vs. Vehicle (qRT-PCR): −1.37
  CCL18 expression, Niclosamide vs. Vehicle (qRT-PCR): −2.02
  CCL20 expression, Niclosamide vs. Vehicle (qRT-PCR): −2.25
  CCL22 expression, Niclosamide vs. Vehicle (qRT-PCR): −1.49
  CCL26 expression, Niclosamide vs. Vehicle (qRT-PCR): −1.49
  CXCL1 expression, Niclosamide vs. Vehicle (qRT-PCR): −1.63
  CXCL2 expression, Niclosamide vs. Vehicle (qRT-PCR): −1.21
  CXCL9 expression, Niclosamide vs. Vehicle (qRT-PCR): 1.16
  CXCL10 expression, Niclosamide vs. Vehicle (qRT-PCR): −1.10
  DEFB4A/DEFB4B expression, Niclosamide vs. Vehicle (qRT-PCR): −2.06
  FLG expression, Niclosamide vs. Vehicle (qRT-PCR): 1.30
  FOXP3 expression, Niclosamide vs. Vehicle (qRT-PCR): −1.14
  IFNg expression, Niclosamide vs. Vehicle (qRT-PCR): 1.19
  IL1B expression, Niclosamide vs. Vehicle (qRT-PCR): −1.01
  IL2 expression, Niclosamide vs. Vehicle (qRT-PCR): −1.36
  IL5 expression, Niclosamide vs. Vehicle (qRT-PCR): −1.47
  IL6 expression, Niclosamide vs. Vehicle (qRT-PCR): −1.24
  IL8 expression, Niclosamide vs. Vehicle (qRT-PCR): −1.46
  IL9 expression, Niclosamide vs. Vehicle (qRT-PCR): −1.17
  IL10 expression, Niclosamide vs. Vehicle (qRT-PCR): −1.51
  IL12A expression, Niclosamide vs. Vehicle (qRT-PCR): 1.09
  IL12B expression, Niclosamide vs. Vehicle (qRT-PCR): −1.42
  IL13 expression, Niclosamide vs. Vehicle (qRT-PCR): −1.59
  IL15RA expression, Niclosamide vs. Vehicle (qRT-PCR): −1.12
  IL15 expression, Niclosamide vs. Vehicle (qRT-PCR): −1.14
  IL17A expression, Niclosamide vs. Vehicle (qRT-PCR): −1.40
  IL17C expression, Niclosamide vs. Vehicle (qRT-PCR): −2.35
  IL17F expression, Niclosamide vs. Vehicle (qRT-PCR): 1.37
  IL19 expression, Niclosamide vs. Vehicle (qRT-PCR): 1.16
  IL22 expression, Niclosamide vs. Vehicle (qRT-PCR): −1.97
  IL23A expression, Niclosamide vs. Vehicle (qRT-PCR): −1.37
  IL31 expression, Niclosamide vs. Vehicle (qRT-PCR): −1.46
  IL33 expression, Niclosamide vs. Vehicle (qRT-PCR): 1.11
  KRT16 expression, Niclosamide vs. Vehicle (qRT-PCR): −1.60
  LOR expression, Niclosamide vs. Vehicle (qRT-PCR): 1.27
  MMP12 expression, Niclosamide vs. Vehicle (qRT-PCR): −1.90
  PI3 expression, Niclosamide vs. Vehicle (qRT-PCR): −1.93
  PPL expression, Niclosamide vs. Vehicle (qRT-PCR): 1.04
  S100A7 expression, Niclosamide vs. Vehicle (qRT-PCR): −2.20
  S100A8 expression, Niclosamide vs. Vehicle (qRT-PCR): −2.02
  S100A9 expression, Niclosamide vs. Vehicle (qRT-PCR): −1.97
  S100A12 expression, Niclosamide vs. Vehicle (qRT-PCR): −2.11
  TSLPR expression, Niclosamide vs. Vehicle (qRT-PCR): −1.36
[1]; Day 22 vs baseline
  CAMP expression, Niclosamide vs. Predose (qRT-PCR): −3.02
  CCL5 expression, Niclosamide vs. Predose (qRT-PCR): −1.22
  CCL17 expression, Niclosamide vs. Predose (qRT-PCR): −2.02
  CCL18 expression, Niclosamide vs. Predose (qRT-PCR): −2.45
  CCL20 expression, Niclosamide vs. Predose (qRT-PCR): −1.96
  CCL22 expression, Niclosamide vs. Predose (qRT-PCR): −1.95
  CCL26 expression, Niclosamide vs. Predose (qRT-PCR): −1.03
  CXCL1 expression, Niclosamide vs. Predose (qRT-PCR): −2.80
  CXCL2 expression, Niclosamide vs. Predose (qRT-PCR): −1.89
  CXCL9 expression, Niclosamide vs. Predose (qRT-PCR): −1.51
  CXCL10 expression, Niclosamide vs. Predose (qRT-PCR): −1.64
  DEFB4A/DEFB4B expression, Niclosamide vs. Predose (qRT-PCR): −4.09
  FLG expression, Niclosamide vs. Predose (qRT-PCR): 1.50
  FOXP3 expression, Niclosamide vs. Predose (qRT-PCR): −1.39
  IFNg expression, Niclosamide vs. Predose (qRT-PCR): −1.11
  IL1B expression, Niclosamide vs. Predose (qRT-PCR): −1.64
  IL2 expression, Niclosamide vs. Predose (qRT-PCR): −1.20
  IL5 expression, Niclosamide vs. Predose (qRT-PCR): −2.38
  IL6 expression, Niclosamide vs. Predose (qRT-PCR): −2.34
  IL8 expression, Niclosamide vs. Predose (qRT-PCR): −3.78
  IL9 expression, Niclosamide vs. Predose (qRT-PCR): −1.91
  IL10 expression, Niclosamide vs. Predose (qRT-PCR): −1.85
  IL12A expression, Niclosamide vs. Predose (qRT-PCR): −1.01
  IL12B expression, Niclosamide vs. Predose (qRT-PCR): −2.01
  IL13 expression, Niclosamide vs. Predose (qRT-PCR): −2.06
  IL15RA expression, Niclosamide vs. Predose (qRT-PCR): −1.46
  IL15 expression, Niclosamide vs. Predose (qRT-PCR): −1.47
  IL17A expression, Niclosamide vs. Predose (qRT-PCR): −2.23
  IL17C expression, Niclosamide vs. Predose (qRT-PCR): −3.24
  IL17F expression, Niclosamide vs. Predose (qRT-PCR): 1.02
  IL19 expression, Niclosamide vs. Predose (qRT-PCR): −3.26
  IL22 expression, Niclosamide vs. Predose (qRT-PCR): −2.86
  IL23A expression, Niclosamide vs. Predose (qRT-PCR): −2.13
  IL31 expression, Niclosamide vs. Predose (qRT-PCR): −1.85
  IL33 expression, Niclosamide vs. Predose (qRT-PCR): −1.08
  KRT16 expression, Niclosamide vs. Predose (qRT-PCR): −3.88
  LOR expression, Niclosamide vs. Predose (qRT-PCR): 1.67
  MMP12 expression, Niclosamide vs. Predose (qRT-PCR): −3.27
  PI3 expression, Niclosamide vs. Predose (qRT-PCR): −4.52
  PPL expression, Niclosamide vs. Predose (qRT-PCR): −1.07
  S100A7 expression, Niclosamide vs. Predose (qRT-PCR): −3.04
  S100A8 expression, Niclosamide vs. Predose (qRT-PCR): −3.85
  S100A9 expression, Niclosamide vs. Predose (qRT-PCR): −3.47
  S100A12 expression, Niclosamide vs. Predose (qRT-PCR): −4.29
  TSLPR expression, Niclosamide vs. Predose (qRT-PCR): −1.82
[1]; [5]
  FLG expression, Niclosamide vs. Predose (qRT-PCR): increased significantly
  LOR expression, Niclosamide vs. Predose (qRT-PCR): increased significantly
[2]; [6]
  inflammatory cells (dendritic cells: CD11c, FceR1 in epidermis, and Langerhans cells: langerin/CD207): Significant reductions
  total amount of T cells (CD3) in dermis and epidermis: No significant change
[2]; Day 22 compared to baseline, clinically correlated to TSS
  CD11c Dermis expression level: significantly changed
[3]
  skin thickness: No differences
